Experimental data taken from PMC9104013, “Role of Polyamine-Induced Dimerization of Antizyme in Its Cellular Functions” (International Journal of Molecular Sciences, 2022).

How the values were obtained:
[1] = tested on: 72-mer-2'-O-Me-oligoribonucleotide L-OM, containing the +1 frameshift site, hairpin and pseudoknot of the mOAZ1 mRNA; assay: RNA melting point (UV thermal denaturation); type: binding, mouse; conditions: for Tm: 1 μM L-OM, 50 mM Tris-HCl pH 7.5, 50 mM NaCl
Method: UV thermal denaturation data were obtained on a Hitachi U-2900 spectrophotometer equipped with a Peltier temperature controller. The concentration of model 72-mer-2′-O-Me-oligoribonucleotide L-OM, containing the +1 frameshift site, hairpin, and pseudoknot of the mOAZ1 mRNA was 1 µM. Samples were dissolved in 50 mM Tris-HCl, pH 7.5 and 50 mM NaCl buffer. Concentration of oligonucleotide was determined after quantitating the samples by UV absorbance at λ = 260 nm. Samples were heated to 90 °C for 10 min then cooled slowly to room temperature and stored at 5 °C for at least 18 h before the measurements were performed. Denaturation curves were acquired at 260 nm for the duplexes at a rate of 0.5 °C/min, within a range of 30–90 °C. The Tm values were determined from polynomial fitting of the observed curves and taken as the temperatures corresponding to half-dissociation of complex. The first derivative of absorption with respect to temperature, dA/dT, of the melting curve was computer-generated by the GraphPad Prism 7.0 software and used for the determining of Tm.

[2] = tested on: spermidine/spermine-N^1-acetyltransferase (SSAT); set-up: method as in PMID 21639123; conditions: cited from earlier work
OAZ1 protein = OAZ1 protein levels in DU145 cells (Western blotting); type: cell-based; conditions: 4 h, 100 μM, MG132 25 μM
Method: (§1) Figure 3 2-MeSpd is the weakest inducer of OAZ1 synthesis and the weakest downregulator of ODC in DU145 cells. (A) Uptake of Spd and its analogues in CHX-treated DU145 cells. After 2 h preincubation with CHX (100 µg/mL), the compounds (100 µM) were added, and incubation continued for 4 h before the analysis of the intracellular analogue concentration. (B) Uptake of Spd and its analogues in OAZ1-overexpressing DU145 cells. OAZ1 was induced by 24 h preincubation with DOX (250 ng/mL). The compounds (100 µM) were added for further 6 h before the analysis of intracellular analogue concentration. (C) Effect of Spd and the analogues on OAZ1 protein levels in DU145 cells. The cells were incubated for 4 h with 100 μM analogues in the presence of the proteasomal inhibitor, MG132 (25 μM). (D) Effect of Spd and the analogues on ODC activity in DU145 cells. […]
(§2) Polyamines were measured with HPLC according to the published method. Acid-precipitated pellets were dissolved to 0.1 M NaOH, and the amount of DNA was measured using the PicoGreen reagent (Invitrogen) according to manufacturer’s instructions using dilutions of calf thymus DNA (Sigma-Aldrich) as standard curve. Protein concentrations were measured using Bio-Rad protein kit with dilutions of bovine serum albumin (Bio-Rad, Hercules, CA, USA) as standards. ODC activities were measured from the cytosolic fractions as described earlier. […]

[3] = tested on: OAZ1-overexpressing DU145 cells; assay: Uptake of Spd and its analogues in OAZ1-overexpressing DU145 cells; type: cell-based; conditions: DOX 250 ng/mL 24 h, compounds 100 µM, 6 h
Method: as §1, §2

ODC = target: T1, ODC (Homo sapiens, UniProt P11926); assay: In vitro effect of Spd and its analogues on ODC activity in cytosolic extract; type: biochemical; conditions: 1 mM, ODC-enriched DU145 cell sample, 30 min, +37 °C
T1 construct: ODC-enriched lysate was prepared from subconfluent DU145 cells 6 h after medium change; endogenous in cells; host or cells: DU145 cells (cytosolic extract)
T1 sequence (P11926 1-461): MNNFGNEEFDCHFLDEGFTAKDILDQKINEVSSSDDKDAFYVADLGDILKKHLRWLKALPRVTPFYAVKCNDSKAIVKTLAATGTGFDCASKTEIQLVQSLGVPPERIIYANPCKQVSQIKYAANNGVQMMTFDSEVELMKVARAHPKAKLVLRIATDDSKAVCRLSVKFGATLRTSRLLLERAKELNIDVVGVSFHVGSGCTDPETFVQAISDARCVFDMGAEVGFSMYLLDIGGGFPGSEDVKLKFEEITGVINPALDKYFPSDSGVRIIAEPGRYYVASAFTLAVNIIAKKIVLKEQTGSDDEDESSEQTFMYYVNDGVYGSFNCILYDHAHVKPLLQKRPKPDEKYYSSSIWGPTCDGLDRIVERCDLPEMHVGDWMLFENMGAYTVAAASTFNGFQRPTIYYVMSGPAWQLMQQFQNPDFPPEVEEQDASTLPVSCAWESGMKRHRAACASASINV
Method: ODC-enriched lysate was prepared from subconfluent DU145 cells 6 h after medium change by lysing the cells in buffer containing 25 mM Tris-HCl, pH 7.4, 1 mM DTT, and 0.01% Tween-80. OAZ1-enriched lysate was prepared from OAZ1-overexpressing DU145 cells in the same buffer. The lysate was cleared by centrifugation, and the endogenous polyamines were removed by ultrafiltration through 3K-cutoff filter and washing twice with lysis buffer. In experiment 1, ODC-enriched cytoplasmic extract (~100 μg of total protein) was incubated for 30 min at +37 °C in the presence of 1 mM Spd or analogues before ODC activity assay. In experiment 2, ODC-enriched cytoplasmic extract (~100 μg of total protein) was incubated for 30 min at +37 °C with OAZ1-enriched cytoplasmic extract (~100 μg of total protein) in the presence of 1 mM Spd or analogues before ODC activity assay.

[4] = polyamine concentration 20 μM, without polyamine 65.5±0.6

CC(N)CCNCCCCN (centres unmarked) [1-MeSpd] gave a Tm [1, 4] of 73.0±0.4 °C, a Tm ([1]; polyamine concentration 50 μM) of 74.0±0.3 °C and a Tm ([1]; polyamine concentration 200 μM) of 80.2±0.6 °C. The “Substrate of SSAT” value [2] was “not a substrate of SSAT”.

With CC(CN)CNCCCCN (centres unmarked) [2-MeSpd] the “OAZ1 protein level induction” value (OAZ1 protein) was “only marginally induced”, the “Uptake upon DOX-induced expression of OAZ1” value [3] was “reduced the uptake” and the “Tm lower compared with Spd and the other analogues” value [1] was 2–3 °C. The Tm [1, 4] was 70.5±0.5 °C, the Tm ([1]; polyamine concentration 50 μM) was 73.4±0.4 °C and the Tm ([1]; polyamine concentration 200 μM) was 77.5±0.5 °C. The “Substrate of SSAT” value [2] was “substrate of both SSAT and SpmSy”.

In the case of CC(CCN)NCCCCN (centres unmarked) [3-MeSpd], the Tm [1, 4] is reported as 71.9±0.5 °C, the Tm ([1]; polyamine concentration 50 μM) is reported as 75.2±0.4 °C and the Tm ([1]; polyamine concentration 200 μM) is reported as 79.4±0.5 °C. For the same molecule, the “Substrate of SSAT” value [2] was “not a substrate of either SSAT or SpmSy”.

For NCCCCNCCCN [Spd, spermidine], the “OAZ1 protein level induction” value (OAZ1 protein) was “clear induction”, the Tm [1, 4] was 73.7±0.6 °C and the Tm ([1]; polyamine concentration 50 μM) was 75.3±0.4 °C. The Tm ([1]; polyamine concentration 200 μM) was 79.7±1.1 °C and the “Effect of direct addition on ODC activity in vitro” value (ODC) was “did not affect ODC activity”.
